# Data from patent publication US20220264883A1, “IMIDAZOTHIAZOLE COMPOUNDS AND METHODS FOR TREATING PLANT NEMATODE INFECTIONS” (The Governing Council of the University of Toronto, priority 2019, published 2022).
# Legend:
# M. chitwoodi = experiment: Meloidogyne chitwoodi infectivity assays (tomato roots in soil); format: in vivo; details: 45 μM in soil, 8 weeks, egg counts relative to DMSO control
# Procedure: An M. incognita population originally collected from grape (Vitis vinifera) in Parlier, Calif., was used for all experiments, and they were maintained on tomato plants (Solanum lycopersicum ‘Rutgers’) as previously described^73. Infective J2 juveniles were collected as described in^73. For the infectivity assays, 90 grams of soil (1:1 sand:loam mix) was added to each cell of several 6-cell plastic garden packs. The soil was drenched with 18 mL of deionized water containing dissolved chemical or DMSO alone. 2,500 infective J2 juveniles were then added to the soil in 2 mL of deionized water, for a total water volume of 20 mL. The final concentration of the chemicals in water was 45 μM. The DMSO concentration varied from 0.1% to 0.8% (v/v) depending on the stock concentration of the chemical. The highest DMSO concentration was used as the DMSO control. The J2s were incubated in the soil and chemical for 24 hours, after which two- to three-week old tomato seedlings were transplanted into the soil (one plant per cell). […] The number of eggs from each plant root was counted on a dissection microscope using a haemocytometer, and the number of eggs per milligram of root was calculated by dividing the total egg number by the mass of the dried root material. […] An average percent effectiveness value was then calculated across the two different batches carried out on different days. […]
# M. incognita = experiment: Meloidogyne incognita infectivity assays (tomato roots in soil); format: in vivo; details: 45 μM in soil, 8 weeks, eggs per mg root relative to DMSO control
# Procedure: (§1) An M. incognita population originally collected from grape (Vitis vinifera) in Parlier, Calif., was used for all experiments, and they were maintained on tomato plants (Solanum lycopersicum ‘Rutgers’) as previously described^73. Infective J2 juveniles were collected as described in^73. For the infectivity assays, 90 grams of soil (1:1 sand:loam mix) was added to each cell of several 6-cell plastic garden packs. The soil was drenched with 18 mL of deionized water containing dissolved chemical or DMSO alone. 2,500 infective J2 juveniles were then added to the soil in 2 mL of deionized water, for a total water volume of 20 mL. The final concentration of the chemicals in water was 45 μM. The DMSO concentration varied from 0.1% to 0.8% (v/v) depending on the stock concentration of the chemical. The highest DMSO concentration was used as the DMSO control. The J2s were incubated in the soil and chemical for 24 hours, after which two- to three-week old tomato seedlings were transplanted into the soil (one plant per cell). Two replicates were performed for each chemical treatment, and four replicates were done for the DMSO controls. The whole experiment was replicated twice, in two different batches on two different days, for a total of four replicates for each chemical treatment, and eight replicates for the DMSO controls. Inoculated plants were grown for 8 weeks in a greenhouse, as described^73, under long-day conditions (16-h photoperiod) with 26/18° C. day/night temperatures. After 8 weeks, the plants were destructively harvested. The tops were removed and discarded, and roots were gently washed with water to remove adhering soil. Eggs were extracted by placing rinsed roots in 0.6% sodium hypochlorite and agitating at 300 rpm for 3 min. Roots were then rinsed over nested 250- and 25.4-μm sieves, with eggs collected from the latter and suspended in water. Roots were dried in a 65° C. oven for at least 24 hours, after which dry roots were weighed. The number of eggs from each plant root was counted on a dissection microscope using a haemocytometer, and the number of eggs per milligram of root was calculated by dividing the total egg number by the mass of the dried root material. An average was taken across the replicates performed on the same day, and then normalized to the DMSO control average. To calculate percent effectiveness at inhibiting reproduction, the normalized values were subtracted from 1, and then multiplied by 100. An average percent effectiveness value was then calculated across the two different batches carried out on different days.
# tomato plants = experiment: Root mass of tomato plants in the infectivity assays; format: in vivo, Solanum lycopersicum; details: 45 μM
# Procedure: as §1
compound,measurement,setting,value
Clc1ccc(-c2cn3ccsc3n2)cc1 [Ia],% effectiveness at inhibiting reproduction of M. chitwoodi,M. chitwoodi,42.6%
same,% effectiveness at inhibiting reproduction of M. incognita,M. incognita,27.1%
same,Normalized root mass (relative to DMSO control),tomato plants,1.3
